Test results as given in BindingDB's records for doi:10.1021/acs.jmedchem.9b01143 (2019).

Target: Activin receptor type-2A (ACVR2A) (Homo sapiens) (UniProt P27037)
Experiment: Inhibition of human recombinant ACTR2 (162 to end residues) using casein as substrate incubated for 120 mins in presence of [gamma-33P]ATP by radiometric scintillation counting analysis

IC50: > 10 µM
SMILES: CN(C)c1ccc(C(=O)Nc2cccc(NC(=O)COc3ccc4c(=O)ccoc4c3)c2)cc1
